The source of these data is patent publication US20090264355A1, “METHODS TO TREAT ALZHEIMER'S DISEASE OR OTHER DISORDERS MEDIATED BY AMYLOID-BETA ACCUMULATION IN A SUBJECT” (WASHINGTON UNIVERSITY IN ST. LOUIS, priority 2005, published 2009).

Data set [1] addresses T1, Pgp (Mus musculus, UniProt P21447).
T1 construct: from tissue; host or cells: brain (blood-brain barrier) of living 3 month old APPsw+/- (Tg2576) mice
Description: ISF Aβ in vivo microdialysis after acute pharmacologic inhibition of Pgp. Also noted: species or system APPsw mice. The settings on record: 80 mg/kg intravenous. The protocol: In vivo microdialysis to assess brain ISF Aβ1-x in the hippocampus of awake, freely moving 3 month old APPsw^+/− mice was performed exactly as described (Cirrito, J. R., et al. 2003. J. Neurosci. 23:8844-8853; DeMattos, R. B., et al. 2004. Neuron. 41:193-202). Aβ1-x represents all Aβ peptides beginning at amino acid 1 of the N-terminus with the C-terminus being variable but predominantly either ending at position 40 or 42. An initial 4-6 hour recovery period elapsed after guide implantation and probe insertion to allow for tissue recovery, followed by collection of microdialysis samples for 5 hours at one-hour intervals at a flow rate of 1.5 μl/min to establish basal level of ISF Aβ. […] Concentrations of ISF Aβ1-x for each mouse were expressed as the percentage of basal level for each mouse (mean of 5 hours prior to treatment).
Acute inhibition of Pgp activity was assessed using APPsw mice (also called Tg2576). […] Using in vivo microdialysis in awake, freely moving mice (Cirrito, J. R., et al. 2003. J. Neurosci. 23:8844-8853; DeMattos, R. B., et al. 2004. Neuron. 41:193-202), a basal concentration of ISF Aβ was determined over 5 hours. Mice were then treated with either vehicle or XR9576 and ISF Aβ levels were assessed for an additional 10 hours (FIG. 2A). […]

Data set [2] concerns Pgp. Description: [99mTc]Sestamibi transport and biodistribution. It is filed as in vivo, mice. As to conditions: for brain content of the tracer: five minutes after intravenous bolus injection (2 μCi). The procedure:
The radiopharmaceutical [^99mTc]Sestamibi (Bristol-Myers Squibb Co.) was prepared from a one-step commercial kit formulation by addition of [^99mTc]TcO4^− according to the manufacturer's recommendations (25). […] Data are expressed as percent injected dose per gram tissue [(μCi [^99mTc]Sestamibi in tissue) (μCi injected [^99mTc]Sestamibi)^−1(g tissue)^−1×100] and are reported as mean±SEM (n=3-4) or ±range (n=2).
APPsw^+/− mice were bred to mdr1a/b^−/− animals to produce littermate mice that were positive for the APPsw transgene and either Pgp-null (APPsw^+/−, mdr1a/b^−/−) or Pgp wild type (APPsw^+/−, mdr1a/b^+/+). […] Normally, [^99mTc]Sestamibi is readily transported out of the brain by Pgp.

A further data set has as its system LRP1. As to the kind of experiment: LRP1 expression in cerebral capillaries by Western blot after acute inhibition of Pgp. Type of data set: in vivo, APPsw mice. As to conditions: ten hours after treatment, 80 mg/kg intravenous. The protocol: Hippocampal tissue from 12 month old APPsw, Pgp-wild type and APPsw, Pgp-null littermates was homogenized in 150 mM NaCl, 50 mM Tris pH 7.4, 0.5% deoxycholic acid, 0.1% SDS, 1% Triton X-100, 2.5 mM EDTA, and protease inhibitors. Western blotting for MRP1, LRP1, and RAGE were performed using 3-8% NuPAGE Tris-Acetate gels (Invitrogen) with thirty micrograms of protein loaded per lane. Cerebral microvessels from 2-3 month old PGP-wildtype (FVB wild type) and Pgp-null mice were isolated as described (Zlokovic, B. V., et al. 1993. J. Biol. Chem. 268:8019-8025.). […] Bands were detected with Lumigen-TMA6 (Amersham Biosciences) and captured digitally using the Kodak ImageStation 440CF. The relative absorbance of each band was detected by densitometry and normalized to protein loaded in each lane. […]
Acute inhibition of Pgp activity was assessed using APPsw mice (also called Tg2576). […] Using in vivo microdialysis in awake, freely moving mice (Cirrito, J. R., et al. 2003. J. Neurosci. 23:8844-8853; DeMattos, R. B., et al. 2004. Neuron. 41:193-202), a basal concentration of ISF Aβ was determined over 5 hours. Mice were then treated with either vehicle or XR9576 and ISF Aβ levels were assessed for an additional 10 hours (FIG. 2A). […] Ten hours after treatment with either vehicle or XR9576, cerebral microvessels were also isolated and assessed for levels of LRP1 by Western blot.

Data set [3] has as its system Pgp. Description: BBB transport: clearance of radiotracers from the brain after intracerebral microinjection. As to conditions: both groups (Pgp-wild type and Pgp-null); 30 minutes; co-injected with [125I]Aβ42. The protocol:
Transport of human [^125I]Aβ40 or [^125I]Aβ42 across the BBB and the associated calculations were performed as described (DeMattos, R. B., et al. 2002. Science. 295:2264-2267; Zlokovic, B. V., et al. 2000. Nat. Med. 6:718-719.). Briefly, a guide cannula was implanted stereotaxically into the right caudate-putamen of anesthetized mice at coordinates 0.9 mm anterior to bregma, 1.9 mm lateral, and 2.9 mm below the dura. Animals were allowed to recover after surgery prior to radiotracer studies. […] Twelve nanomoles of [^14C]inulin and either [^125I]Aβ40 or [^125I]Aβ42 was co-injected in a volume of 0.5 μl over 5 minutes using an ultra micropump (World Precision Instruments). The specific activities of peptide were in the range of 80-120 μCi/μg. The percentage of radioactivity remaining in the brain after microinjection was determined as % recovery in brain=100×(Nb/Ni), where Nb is the radioactivity remaining in the brain at the end of the experiment and Ni is the radioactivity microinjected into brain ISF, i.e., the disintegrations per minute for [^14C]inulin and the counts per minute for tricholoracetic acid-precipitable [^125I]radioactivity (intact Aβ). The percentage of Aβ cleared through the BBB was calculated as [(1−Nb(Aβ)/Ni(Aβ))−(1−Nb(inulin)/Ni(inulin))]×100, using a standard time of 30 min. […]

T1 sequence (P21447 whole entry): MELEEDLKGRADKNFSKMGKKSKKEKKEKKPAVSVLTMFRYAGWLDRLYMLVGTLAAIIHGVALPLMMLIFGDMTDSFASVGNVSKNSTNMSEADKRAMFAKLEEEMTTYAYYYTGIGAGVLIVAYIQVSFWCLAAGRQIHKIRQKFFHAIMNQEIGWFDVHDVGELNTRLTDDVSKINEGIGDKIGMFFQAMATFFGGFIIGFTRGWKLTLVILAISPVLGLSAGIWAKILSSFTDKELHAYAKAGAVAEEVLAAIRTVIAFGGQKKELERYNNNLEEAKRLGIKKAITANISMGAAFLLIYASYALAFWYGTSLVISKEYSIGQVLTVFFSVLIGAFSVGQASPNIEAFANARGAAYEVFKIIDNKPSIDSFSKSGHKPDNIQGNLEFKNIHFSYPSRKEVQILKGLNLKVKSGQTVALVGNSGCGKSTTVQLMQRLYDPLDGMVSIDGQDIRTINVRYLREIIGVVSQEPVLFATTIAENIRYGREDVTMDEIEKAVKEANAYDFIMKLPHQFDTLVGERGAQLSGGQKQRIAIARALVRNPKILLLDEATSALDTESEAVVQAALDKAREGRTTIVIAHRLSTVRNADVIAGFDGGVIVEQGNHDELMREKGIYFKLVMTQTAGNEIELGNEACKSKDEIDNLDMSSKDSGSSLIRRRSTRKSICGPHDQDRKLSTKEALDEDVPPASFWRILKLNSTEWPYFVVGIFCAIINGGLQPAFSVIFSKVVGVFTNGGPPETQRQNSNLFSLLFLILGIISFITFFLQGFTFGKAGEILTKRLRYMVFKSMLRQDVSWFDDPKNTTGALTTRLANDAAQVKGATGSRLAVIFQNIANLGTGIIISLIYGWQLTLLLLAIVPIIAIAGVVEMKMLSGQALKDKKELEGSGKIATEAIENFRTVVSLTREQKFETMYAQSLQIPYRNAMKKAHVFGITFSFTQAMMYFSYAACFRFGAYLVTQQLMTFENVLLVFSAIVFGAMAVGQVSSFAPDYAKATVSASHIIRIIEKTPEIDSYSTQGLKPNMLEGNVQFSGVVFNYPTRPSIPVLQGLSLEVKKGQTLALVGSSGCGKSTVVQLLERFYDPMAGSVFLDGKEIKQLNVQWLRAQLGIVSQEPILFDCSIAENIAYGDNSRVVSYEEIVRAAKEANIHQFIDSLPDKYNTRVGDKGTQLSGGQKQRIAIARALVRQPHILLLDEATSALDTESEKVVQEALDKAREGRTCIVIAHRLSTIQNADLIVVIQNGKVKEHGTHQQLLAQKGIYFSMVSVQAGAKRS

In the case of `COc1cc2c(cc1OC)CN(CCc1ccc(NC(=O)c3cc(OC)c(OC)cc3NC(=O)c3cnc4ccccc4c3)cc1)CC2` [XR9576], at Pgp [1] (eight hours after treatment), the “increase of ISF Aβ levels compared to vehicle treated mice” value is roughly 30%. In addition, the “ISF exchangeable Aβ1-x (eAβ1-x) levels, % of control-treated (vehicle-treated) mice” value at Pgp [1] (from eight hours after administration, hippocampus, 3 month old APPsw mice) came to 127.7±3.4%. For the same compound, the “Pgp function at the BBB as determined with [99mTc]Sestamibi analysis” value in the data set on Pgp [2] (intravenous, 80 mg/kg, data not shown) is “inhibits Pgp function at the BBB”. Moreover, the “levels of LRP1 in cerebral vessels” value with LRP1 is recorded as “did not change”.

Take `[C-]#[N+]CC(C)(C)OC.[C-]#[N+]CC(C)(C)OC.[C-]#[N+]CC(C)(C)OC.[C-]#[N+]CC(C)(C)OC.[C-]#[N+]CC(C)(C)OC.[C-]#[N+]CC(C)(C)OC.[Tc]` [[^99mTc]Sestamibi]: in the data set with Pgp [2] (FVB strain, without APPsw transgene), the “increase in brain penetration in Pgp-null mice versus wild type” value is “approximately 3.5 fold”. Besides, the “brain content of the tracer” value is listed as 0.85±0.14 % ID/g in the data set on Pgp [2] (Pgp-null mice (FVB)) and 0.22±0.02 % injected dose (ID)/gram (g) in the data set with Pgp [2] (wild type controls (FVB)). The “increase in brain penetration in Pgp-null animals compared with those expressing Pgp” value in the data set on Pgp [2] (animals expressing the APPsw+/- transgene) is reported as 3.5 fold. The “blood content of the tracer, difference between the two strains” value in the data set on Pgp [2] (wild type versus Pgp-null, five minutes post-injection) is reported as “no difference”.

As for inulin [[^14C]inulin], in the data set with Pgp [3], the “brain recovery (retained)” value is reported as “Approximately 85%”.
